{
  "source": "patent US10703760B2",
  "about": "“Morphic forms of marizomib and uses thereof” (Celgene International II Sàrl, priority 2016, dated 2020)",
  "experiment": "Polymorph screen of marizomib Sample 4 (evaporation, cooling, solvent/antisolvent, slurry, grinding, heat stress, amorphous attempts)",
  "assay_type": "physicochemical",
  "protocol": "For slow evaporation (SE), solutions containing marizomib Sample 4 in selected solvents were allowed to evaporate at ambient temperature from vials covered with perforated aluminum foil. For fast evaporation (FE), solutions containing marizomib Sample 4 in selected solvents were allowed to evaporate at ambient temperature from open vials. The results are given below in Table-10. For flash evaporation, […] of disordered marizomib Sample 4 were added dropwise to pre-warmed glass vials, allowing the solvent to flash evaporate immediate upon contact. Resulting solids were collected for analysis. The corresponding figure numbers are given in the right hand column.\nFor crash cooling (CC), concentrated solutions of marizomib Sample 4 were prepared at elevated temperature and filtered through pre-warmed 0.2-μm nylon filters into a clean vial pre-chilled in a dry ice/acetone bath. For fast cooling (FC) and slow cooling (SC), solutions containing marizomib Sample 4 in selected solvents at elevated temperatures in sealed vials. Solutions were then filtered into clean vials with 0.2-μm nylon filters and removed from the heating plate and left at ambient conditions (FC) or allowed to cool to specified temperature on the heating plate (SC). The results are given below in Table-11. As set forth below, the ratio of solvent mixtures are given by volume. Temperature and time are approximate. […]",
  "data": [
    {"molecule": "C[C@@]12OC(=O)[C@]1([C@@H](O)[C@@H]1C=CCCC1)NC(=O)[C@@H]2CCCl", "note": "[marizomib]", "values": [
      {"measurement": "Morphic form observed after exposure to solvents and anti-solvents", "result": "only morphic Form I was observed"}
    ]}
  ]
}
